This note sets out measurements from patent US11708348B2, “Protease inhibitors for treatment of coronavirus infections” (The Scripps Research Institute, priority 2021, dated 2023).

The test system of one test is SARS-CoV-2 strain USA-WA1/2020. The test is described as follows: microbe, parasite or virus in culture. To be noted: Severe acute respiratory syndrome coronavirus 2, HeLa-ACE2, 24 h, HeLa-ACE2 cells, SARS-CoV-2 infection, 24 h; bound printed in cell; read-out: EC50, uM (Hela). The test is classed as cell-based.
One may read the EC50 as the midpoint of the concentration-response curve. As to `C[C@@H]1CN(C(=O)C(=O)NC(C)(C)C(F)(F)F)C[C@H]1C(=O)N[C@@H](C[C@@H]1CCNC1=O)C(=O)COC(F)(F)F` [Compound 293, (3S,4S)-4-methyl-N-((S)-3-oxo-1-((S)-2-oxopyrrolidin-3-yl)-4-(trifluoromethoxy)butan-2-yl)-1-(2-oxo-2-((1,1,1-trifluoro-2-methylpropan-2-yl)amino)acetyl)-pyrrolidine-3-carboxamide], the concentration giving a half-maximal response (EC50) was > 1 µM.

With `O=C1NCC[C@H]1C[C@H](NC(=O)[C@@H]1C[C@H]2C[C@H]2N1C(=O)[C@H]1CCCO1)C(=O)COC(F)(F)F` [Compound 303, (1R,3S,5R)-N-((S)-3-oxo-1-((S)-2-oxopyrrolidin-3-yl)-4-(trifluoromethoxy)butan-2-yl)-2-((R)-tetrahydrofuran-2-carbonyl)-2-azabicyclo[3.1.0]-hexane-3-carboxamide], the half-maximal effective concentration (EC50) was > 1 µM. Regarding `O=C1NCC[C@H]1C[C@H](NC(=O)[C@@H]1C[C@H]2C[C@H]2N1C(=O)[C@@H]1CCCO1)C(=O)COC(F)(F)F` [Compound 304, (1R,3S,5R)-N-(3-oxo-1-((S)-2-oxopyrrolidin-3-yl)-4-(trifluoromethoxy)butan-2-yl)-2-((S)-tetrahydrofuran-2-carbonyl)-2-azabicyclo[3.1.0]-hexane-3-carboxamide], the 50% effective concentration (EC50) was > 1 µM.

With `CC1(C(=O)N2C[C@@H]3CCC[C@@H]3[C@H]2C(=O)N[C@@H](C[C@@H]2CCNC2=O)C(=O)COC(F)(F)F)CCCO1` (stereo partly drawn) [Compound 310, (1S,3aR,6aS)-2-(2-methyltetrahydrofuran-2-carbonyl)-N-((S)-3-oxo-1-((S)-2-oxopyrrolidin-3-yl)-4-(trifluoromethoxy)butan-2-yl)octahydro-cyclopenta[c]pyrrole-1-carboxamide], the half-maximal effective concentration (EC50) is > 1 µM.

The test is the same for the next values; noted with them: Severe acute respiratory syndrome coronavirus 2, HeLa-ACE2, 24 h, HeLa-ACE2 cells, SARS-CoV-2 infection, 24 h; class symbols; read-out: EC50, uM (Hela).
As for `CC(C)(F)c1cc(C(=O)N2C[C@H]3[C@@H]([C@H]2C(=O)N[C@@H](C[C@@H]2CCNC2=O)C(=O)COc2c(F)c(F)cc(F)c2F)C3(C)C)no1` [Compound 284, (1R,2S,5S)-3-(5-(2-fluoropropan-2-yl)isoxazole-3-carbonyl)-6,6-dimethyl-N-((S)-3-oxo-1-((S)-2-oxopyrrolidin-3-yl)-4-(2,3,5,6-tetrafluorophenoxy)butan-2-yl)-3-azabicyclo-[3.1.0]hexane-2-carboxamide], the EC50 was in the range of 0.2 to 0.5 µM. On the same count and under the same terms, the same measure for `CC(C)(C)[C@H](NC(=O)[C@H]1CCCO1)C(=O)N1C[C@H]2[C@@H]([C@H]1C(=O)N[C@@H](C[C@@H]1CCNC1=O)C(=O)COC(F)(F)F)C2(C)C` [Compound 290, (1R,2S,5S)-3-((S)-3,3-dimethyl-2-((R)-tetrahydrofuran-2-carboxamido)-butanoyl)-6,6-dimethyl-N-((S)-3-oxo-1-((S)-2-oxopyrrolidin-3-yl)-4-(trifluoromethoxy)butan-2-yl)-3-azabicyclo-[3.1.0]hexane-2-carboxamide]: 0.2 to 0.5 µM; for `CC1(C)[C@@H]2[C@@H](C(=O)N[C@@H](C[C@@H]3CCNC3=O)C(=O)COC(F)(F)F)N(C(=O)[C@H]3CCCO3)C[C@@H]21` [Compound 291, (1R,2S,5S)-6,6-dimethyl-N-((S)-3-oxo-1-((S)-2-oxopyrrolidin-3-yl)-4-(trifluoromethoxy)butan-2-yl)-3-((R)-tetrahydrofuran-2-carbonyl)-3-azabicyclo-[3.1.0]hexane-2-carboxamide]: 0.05 to 0.2 µM; for `CC[C@H](NC(=O)C1CC2(CC2)CO1)C(=O)N[C@@H](C[C@@H]1CCNC1=O)C(=O)COC(F)(F)F` (stereo partly drawn) [Compound 294, N-((S)-1-oxo-1-(((S)-3-oxo-1-((S)-2-oxopyrrolidin-3-yl)-4-(trifluoromethoxy)butan-2-yl)amino)butan-2-yl)-5-oxaspiro[2.4]heptane-6-carboxamide]: < 0.05 µM.

As for `O=C1NCC[C@H]1C[C@H](NC(=O)[C@@H]1[C@H]2CCC[C@H]2CN1C(=O)C1CC2(CC2)CO1)C(=O)COC(F)(F)F` (stereo partly drawn) [Compound 295, (1S,3aR,6aS)-N-((S)-3-oxo-1-((S)-2-oxopyrrolidin-3-yl)-4-(trifluoromethoxy)butan-2-yl)-2-(5-oxaspiro[2.4]heptane-6-carbonyl)octahydro-cyclopenta[c]pyrrole-1-carboxamide], the EC50 fell in the range of 0.05 to 0.2 µM. In the case of `O=C(N[C@@H](C[C@@H]1CCNC1=O)C(=O)COC(F)(F)F)C(CC1CCOCC1)NC(=O)[C@H]1CCCO1` (stereo partly drawn) [Compound 298, (2R)-N-(1-oxo-1-(((S)-3-oxo-1-((S)-2-oxopyrrolidin-3-yl)-4-(trifluoromethoxy)butan-2-yl)amino)-3-(tetrahydro-2H-pyran-4-yl)propan-2-yl)tetrahydrofuran-2-carboxamide], the EC50 lay in the range of 0.5 to 1 µM.

As for `O=C(N[C@@H](C[C@@H]1CCNC1=O)C(=O)COC(F)(F)F)C1[C@H]2CCC[C@H]2CN1C(=O)[C@H]1CCCO1` (stereo partly drawn) [Compound 299, (1S,3aR,6aS)-N-((S)-3-oxo-1-((S)-2-oxopyrrolidin-3-yl)-4-(trifluoromethoxy)butan-2-yl)-2-((R)-tetrahydrofuran-2-carbonyl)octahydro-cyclopenta[c]pyrrole-l-carboxamide], the concentration for a half-maximal effect (EC50) fell in the range of 0.05 to 0.2 µM. Same read-out and setting: the value for `O=C1NCC[C@H]1C[C@H](NC(=O)[C@H](CC1CC1)NC(=O)[C@H]1CCCO1)C(=O)COC(F)(F)F` [Compound 300, (R)-N-((S)-3-cyclopropyl-1-oxo-1-(((S)-3-oxo-1-((S)-2-oxopyrrolidin-3-yl)-4-(trifluoromethoxy)butan-2-yl)amino)propan-2-yl)tetrahydrofuran-2-carboxamide] was < 0.05 µM.

In the case of `CC(C)(C)C[C@H](NC(=O)[C@H]1CCCO1)C(=O)N[C@@H](C[C@@H]1CCNC1=O)C(=O)COC(F)(F)F` [Compound 301, (R)-N-((S)-4,4-dimethyl-1-oxo-1-(((S)-3-oxo-1-((S)-2-oxopyrrolidin-3-yl)-4-(trifluoromethoxy)butan-2-yl)amino)pentan-2-yl)tetrahydrofuran-2-carboxamide], the EC50 was < 0.05 µM. The same measure, in the same setting: the same measure for `O=C1NCC[C@H]1C[C@H](NC(=O)[C@@H]1CC2(CC2)CN1C(=O)[C@H]1CCCO1)C(=O)COC(F)(F)F` [Compound 305, (S)-N-((S)-3-oxo-1-((S)-2-oxopyrrolidin-3-yl)-4-(trifluoromethoxy)butan-2-yl)-5-((R)-tetrahydrofuran-2-carbonyl)-5-azaspiro[2.4]heptane-6-carboxamide]: 0.2 to 0.5 µM; for `CC1(C)[C@@H]2[C@@H](C(=O)N[C@@H](C[C@@H]3CCNC3=O)C(=O)COC(F)(F)F)N(C(=O)[C@H]3COCCO3)C[C@@H]21` [Compound 306, (1R,2S,5S)-3-((R)-1,4-dioxane-2-carbonyl)-6,6-dimethyl-N-((S)-3-oxo-1-((S)-2-oxopyrrolidin-3-yl)-4-(trifluoromethoxy)butan-2-yl)-3-azabicyclo[3.1.0]-hexane-2-carboxamide]: 0.05 to 0.2 µM.

Take `CC1(C)[C@@H]2[C@@H](C(=O)N[C@@H](C[C@@H]3CCNC3=O)C(=O)COC(F)(F)F)N(C(=O)[C@@H]3COCCO3)C[C@@H]21` [Compound 307, (1R,2S,5S)-3-((S)-1,4-dioxane-2-carbonyl)-6,6-dimethyl-N-((S)-3-oxo-1-((S)-2-oxopyrrolidin-3-yl)-4-(trifluoromethoxy)butan-2-yl)-3-azabicyclo[3.1.0]hexane-2-carboxamide]: the EC50 is 0.2 to 0.5 µM. On to `O=C1NCC[C@H]1C[C@H](NC(=O)[C@@H]1[C@H]2CCC[C@H]2CN1C(=O)C12CCC(CC1)O2)C(=O)COC(F)(F)F` [Compound 308, (1S,3aR,6aS)-2-(7-oxabicyclo[2.2.1]-heptane-1-carbonyl)-N-((S)-3-oxo-1-((S)-2-oxopyrrolidin-3-yl)-4-(trifluoromethoxy)butan-2-yl)octahydrocyclo-penta[c]pyrrole-1-carboxamide], for which the 50% effective concentration (EC50) lay in the range of 0.05 to 0.2 µM.

On to `CC(C)C[C@H](NC(=O)C12CCC(CC1)O2)C(=O)N[C@@H](C[C@@H]1CCNC1=O)C(=O)COC(F)(F)F` [Compound 309, N-((S)-4-methyl-1-oxo-1-(((S)-3-oxo-1-((S)-2-oxopyrrolidin-3-yl)-4-(trifluoromethoxy)butan-2-yl)amino)pentan-2-yl)-7-oxabicyclo [2.2.1]-heptane-1-carboxamide], for which the concentration giving a half-maximal response (EC50) was < 0.05 µM. As to `CC12COC(C(=O)N3C[C@@H]4CCC[C@@H]4[C@H]3C(=O)N[C@@H](C[C@@H]3CCNC3=O)C(=O)COC(F)(F)F)(C1)C2` [Compound 312, (1S,3aR,6aS)-2-(4-methyl-2-oxabicyclo-[2.1.1]hexane-1-carbonyl)-N-((S)-3-oxo-1-((S)-2-oxopyrrolidin-3-yl)-4-(trifluoromethoxy)butan-2-yl)octahydrocyclo-penta[c]pyrrole-1-carboxamide], the EC50 is 0.05 to 0.2 µM. Same read-out and setting: the same measure for `CC(C)C[C@H](NC(=O)C12CC(C)(CO1)C2)C(=O)N[C@@H](C[C@@H]1CCNC1=O)C(=O)COC(F)(F)F` [Compound 313, 4-methyl-N-((S)-4-methyl-1-oxo-1-(((S)-3-oxo-1-((S)-2-oxopyrrolidin-3-yl)-4-(trifluoromethoxy)butan-2-yl)amino)pentan-2-yl)-2-oxabicyclo-[2.1.1]hexane-1-carboxamide]: 0.05 to 0.2 µM; for `O=C1NCC[C@H]1C[C@H](NC(=O)[C@@H]1[C@H]2CCC[C@H]2CN1C(=O)C12CC(C(F)(F)F)(CO1)C2)C(=O)COC(F)(F)F` [Compound 315, (1S,3aR,6aS)-N-((S)-3-oxo-1-((S)-2-oxopyrrolidin-3-yl)-4-(trifluoromethoxy)butan-2-yl)-2-(4-(trifluoromethyl)-2-oxabicyclo[2.1.1]-hexane-1-carbonyl)-octahydrocyclopenta-[c]pyrrole-1-carboxamide]: < 0.05 µM.

Still in this test, the particulars now being: Severe acute respiratory syndrome coronavirus 2, HeLa-ACE2, 24 h; read-out: EC50, uM (Hela).
Regarding `CC(C)C[C@H](NC(=O)C12CC(NC(=O)C(F)(F)F)(CO1)C2)C(=O)N[C@@H](C[C@@H]1CCNC1=O)C(=O)COC(F)(F)F` [Compound 314, N-((S)-4-methyl-1-oxo-1-(((S)-3-oxo-1-((S)-2-oxopyrrolidin-3-yl)-4-(trifluoromethoxy)butan-2-yl)amino)pentan-2-yl)-4-(2,2,2-trifluoroacetamido)-2-oxabicyclo[2.1.1]-hexane-1-carboxamide], the EC50 lay in the range of 0.2 to 0.5 µM.
